Laboratory results reported in BindingDB's records for PubMed 36126447 (Acharya & Bm Reddy College of Pharmacy, 2022).

Target: Programmed cell death 1 ligand 1 (Homo sapiens) (UniProt Q9NZQ7)
Assay: Inhibition of human PD-1/PDL1 protein-protein interaction by luminescence proximity homogeneous assay

Chain of Programmed cell death 1 ligand 1 (Homo sapiens) (Q9NZQ7 whole entry, looked up): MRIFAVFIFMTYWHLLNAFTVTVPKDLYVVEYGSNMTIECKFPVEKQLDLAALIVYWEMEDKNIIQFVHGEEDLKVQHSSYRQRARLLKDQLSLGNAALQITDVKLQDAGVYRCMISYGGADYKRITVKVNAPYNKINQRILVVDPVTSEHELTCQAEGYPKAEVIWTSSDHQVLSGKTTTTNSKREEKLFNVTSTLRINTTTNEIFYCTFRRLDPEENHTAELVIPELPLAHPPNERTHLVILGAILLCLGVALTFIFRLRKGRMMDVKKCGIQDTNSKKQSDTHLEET

## Cc1c(COc2ccc(C[C@H](N)C(=O)O)cc2Br)cccc1-c1ccccc1
  IC50: 1.5 µM
